pKd: −log10 of the molar value. Values joined by “and” are separate entries in the source; they are usually repeats but may differ in a detail not shown here. Equal entries are not always repeated.
Columns and labels:
metal-free Aβ42 = biological target: T1, metal-free Aβ42 (Homo sapiens, UniProt P05067); test: CD spectroscopy of metal-free Aβ42 (BeStSel); details: Aβ42 100 μM; flavonoid 200 μM; 37 °C; 24 h
T1 construct: purchased Peptide Institute, Inc. (Osaka, Japan)
Protocol: CD Spectroscopy. Metal-free Ab42 (100 µM) was incubated with and without 5, 4b, and 6 (200 µM) for 24 h in 20 mM HEPES, pH 7.4, 150 mM NaF at 37 °C with constant agitation (250 rpm).
CD spectra were collected in the range from 195 nm to 255 nm. The digital integration time, the bandwidth, and the scanning speed were 4 s, 2 nm, and 20 nm/min, respectively. Each spectrum was smoothed by Fourier transforms. The change in the secondary structure of metal-free Ab42 […]
treated with a flavonoid was analyzed following the previously reported BeStSel method.25 The measurements were conducted in triplicate. […]
mM HEPES, pH 7.4, 150 mM NaCl) with or without Ab40 (25 µM) in the absence and presence of CuCl2 or ZnCl2 (25 µM). Abs spectra of the samples were collected for 24 h at 37 °C.
6c [3-(3,4-Dihydroxyphenyl)-5,6,7-trimethoxy-4H-chromen-4-one]. […] After 4 h, the reaction mixture was extracted in a solution of ethyl acetate (EtOAc) and saturated sodium acetate (NaOAc; 0.12 g/mL). The organic layer was collected, washed with brine, dried with sodium sulfate ([…]), filtered, and concentrated. The crude product was purified by column chromatography (SiO2; EtOAc:hexanes = 1:1) to yield 6c [Rf = 0.3; yellow powder; 650 mg, 2.0 mmol (yield = 31%)] that was used for the next step without further purification. 1H NMR [400 MHz, […]

[1] = system: human neuroblastoma SH-SY5Y (5Y) cells; test: Cellular ROS detection assay (prooxidant activity); format: cell-based
Protocol: Cellular ROS Detection Assay. The prooxidant activity of flavonoids in living cells was measured by a cellular ROS detection assay kit (Abcam) following the manufacturer ’s protocol. The human neuroblastoma 5Y cells were maintained in media containing 50% v/v Dulbecco's Modified Eagle Medium and 50% v/v Nutrient Mixture F12 (phenol red-free DMEM/F12; GIBCO, Grand Island, NY, USA) supplemented with 10% v/v fetal bovine serum (GIBCO) and 100 U/mL penicillin-streptomycin (GIBCO). The cells were grown and maintained at 37 °C in a humidified atmosphere with 5% CO2. Cells were seeded in a 96-well plate (50,000 cells/100 µL). After 24 h incubation, a ROS-staining working solution (100 µL) was added to each well and the plate was incubated for 1 h at 37 °C. Cells were then treated with the samples {[flavonoid] = 0.01, 0.1, 0.5, and 1 mM (1% v/v DMSO)}. The cellular ROS levels upon the treatment of samples were measured based on the fluorescence intensity (lex/lem = 520/605 nm) of the wells that was detected after 2 h incubation and calculated, relative to that of the cells containing an equivalent amount of DMSO.
All experiments were performed in triplicate.

Aβ42 = biological target: T2, Aβ42 (Homo sapiens, UniProt P05067); test: ITC binding of 6 with Aβ42
T2 construct: purchased Peptide Institute, Inc. (Osaka, Japan)
T2 sequence (P05067 672-713 limits assumed): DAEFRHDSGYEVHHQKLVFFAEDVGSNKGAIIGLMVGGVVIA
Protocol: Distinct reactivities of 6 with metal-free Aβ and metal–Aβ were supported by various biophysical approaches. […] In the absence of Aβ, an increase or decrease in the absorption of the peaks at ca. 265, 300, 340, and 410 nm was monitored for 24 h (Fig. S18 ^†), which could be resulted from the oxidation of 6 in the presence of O2.[69] These spectral changes were accelerated upon incubation with Aβ, indicative of its impact on the oxidative modification of 6. Such transformation of 6 was also indicated in the presence of Cu(II) or Zn(II) with and without Aβ. To probe the interaction of 6 with Aβ, their binding properties were analyzed by isothermal titration calorimetry (ITC). For the association between 6 and Aβ, we recorded the heat change upon constant titration of the flavonoid into the solution of Aβ, where the dilution heat was also measured to avoid the heat change induced by its addition into the buffered solution. […] Thus, 6 can bind to Aβ with a micromolar binding affinity. […]
ITC. The solutions of Ab and 6 were subjected to degassing under vacuum for 3 min prior to loading into the instrument. […] […] The initial delay and the reference power were 60 s and 10 µcal/s, respectively. Dilution heat of 6 only was also measured under the same experimental conditions.
The ITC thermogram and binding isotherm were shown after the subtraction of the dilution heat.
The binding isotherm after baseline correction was fitted to the one-set-of-sites binding model using the MicroCal Origin software (version 7.0).
Expression and Purification of 15N-labeled Recombinant Ab42. 15N-labeled recombinant Ab42 was expressed in E. coli and purified as previously reported.27 Briefly, the DNA sequence coding the human Ab42 peptide was artificially constructed using codons preferred by E. coli with an extra Met residue at the N-terminal of the peptide. The DNA construct was inserted into pAED4 vector28 and the E. coli BL21 (DE3) pLysS strain (Novagen, Inc., Madison, WI, USA) was utilized in the protein expression. Transformed cells were incubated in LB media containing ampicillin and chloramphenicol until the cultures reach 3.5 McFarland turbidity. Cells were then harvested by centrifugation and the cell pellets were resuspended in M9 minimal media containing isotopically labeled 1 g/L 15N ammonium chloride, and induced by addition of 1 mM IPTG for 4 h. The peptide formed inclusion bodies in the bacterial cells. The purified inclusion bodies were dissolved in 20 mM NaOH and the peptide was further purified by repeated cycles of amyloid growth at low pH

T1 sequence (P05067 672-713 limits assumed): as above

For `O=c1c(-c2ccccc2)coc2cc(O)c(O)c(O)c12` [4b, 5,6,7-trihydroxyisoflavone], the “Random Coils (%) of metal-free Aβ42” value (metal-free Aβ42) was 53.8% and 53.8 (±5.9) %, the “Turn (%) of metal-free Aβ42” value (metal-free Aβ42) was 10.3% and the “α-Helix (%) of metal-free Aβ42” value (metal-free Aβ42) was 0.4%. The “β-Sheet (%) of metal-free Aβ42” value (metal-free Aβ42) was 35.5% and 35.5 (±5.7) %, the “cellular ROS concentration / prooxidative activity” value ([1]; 0.01 and 0.1 mM flavonoid) was “no elevation of the cellular ROS concentration” and the “cellular ROS concentration / prooxidative activity” value ([1]; 0.5 and 1 mM flavonoid) was “the prooxidative activity was observed”.

For `O=c1cc(-c2ccccc2)oc2c(Cl)c(O)c(O)c(O)c12` [compound 5, 8-chlorobaicalein], the “Random Coils (%) of metal-free Aβ42” value (metal-free Aβ42) was 19.7% and 19.7 (±15.5) %, the “Turn (%) of metal-free Aβ42” value (metal-free Aβ42) was 12.5% and the “α-Helix (%) of metal-free Aβ42” value (metal-free Aβ42) was 1.2%. For the same molecule, the “β-Sheet (%) of metal-free Aβ42” value (metal-free Aβ42) was 66.7% and 66.7 (±15.3) %.

`O=c1c(-c2ccc(O)c(O)c2)coc2cc(O)c(O)c(O)c12` [compound 6, 3-(3,4-dihydroxyphenyl)-5,6,7-trihydroxy-4H-chromen-4-one] was tested, and the “Random Coils (%) of metal-free Aβ42” value (metal-free Aβ42) was 13.6%, the “Turn (%) of metal-free Aβ42” value (metal-free Aβ42) was 38.1% and the “α-Helix (%) of metal-free Aβ42” value (metal-free Aβ42) was 1.5%. The “β-Sheet (%) of metal-free Aβ42” value (metal-free Aβ42) was 46.7%, the pKd (Aβ42; one-site model, 10 °C, read-out: Binding affinity) was ~4.71 and the TΔS (Aβ42; pH 7.4, 10 °C) was 5.6 (±0.1) kcal mol^−1. For the same molecule, the ΔG (Aβ42; pH 7.4, 10 °C) was −6.1 (±0.1) kcal mol^−1, the ΔH (Aβ42; pH 7.4, 10 °C) was −0.5 (±0.1) kcal mol^−1 and the “cellular ROS concentration / prooxidative activity” value ([1]; 0.01 and 0.1 mM flavonoid) was “No prooxidative activity”. The “cellular ROS concentration / prooxidative activity” value ([1]; 0.5 and 1 mM flavonoid) was “increase in the amount of cellular ROS”.
